Results taken from article PMC9588003, “TRPM8 contributes to sex dimorphism by promoting recovery of normal sensitivity in a mouse model of chronic migraine” (Nature Communications, 2022).

Target: human TRPM8 (hTRPM8) (Homo sapiens, UniProt Q7Z2W7)
Assay: whole-cell patch clamp, hTRPM8-HEK293 cells; agonist dose-response
Type: cell-based

Sequence of human TRPM8 (hTRPM8) (Q7Z2W7 whole entry): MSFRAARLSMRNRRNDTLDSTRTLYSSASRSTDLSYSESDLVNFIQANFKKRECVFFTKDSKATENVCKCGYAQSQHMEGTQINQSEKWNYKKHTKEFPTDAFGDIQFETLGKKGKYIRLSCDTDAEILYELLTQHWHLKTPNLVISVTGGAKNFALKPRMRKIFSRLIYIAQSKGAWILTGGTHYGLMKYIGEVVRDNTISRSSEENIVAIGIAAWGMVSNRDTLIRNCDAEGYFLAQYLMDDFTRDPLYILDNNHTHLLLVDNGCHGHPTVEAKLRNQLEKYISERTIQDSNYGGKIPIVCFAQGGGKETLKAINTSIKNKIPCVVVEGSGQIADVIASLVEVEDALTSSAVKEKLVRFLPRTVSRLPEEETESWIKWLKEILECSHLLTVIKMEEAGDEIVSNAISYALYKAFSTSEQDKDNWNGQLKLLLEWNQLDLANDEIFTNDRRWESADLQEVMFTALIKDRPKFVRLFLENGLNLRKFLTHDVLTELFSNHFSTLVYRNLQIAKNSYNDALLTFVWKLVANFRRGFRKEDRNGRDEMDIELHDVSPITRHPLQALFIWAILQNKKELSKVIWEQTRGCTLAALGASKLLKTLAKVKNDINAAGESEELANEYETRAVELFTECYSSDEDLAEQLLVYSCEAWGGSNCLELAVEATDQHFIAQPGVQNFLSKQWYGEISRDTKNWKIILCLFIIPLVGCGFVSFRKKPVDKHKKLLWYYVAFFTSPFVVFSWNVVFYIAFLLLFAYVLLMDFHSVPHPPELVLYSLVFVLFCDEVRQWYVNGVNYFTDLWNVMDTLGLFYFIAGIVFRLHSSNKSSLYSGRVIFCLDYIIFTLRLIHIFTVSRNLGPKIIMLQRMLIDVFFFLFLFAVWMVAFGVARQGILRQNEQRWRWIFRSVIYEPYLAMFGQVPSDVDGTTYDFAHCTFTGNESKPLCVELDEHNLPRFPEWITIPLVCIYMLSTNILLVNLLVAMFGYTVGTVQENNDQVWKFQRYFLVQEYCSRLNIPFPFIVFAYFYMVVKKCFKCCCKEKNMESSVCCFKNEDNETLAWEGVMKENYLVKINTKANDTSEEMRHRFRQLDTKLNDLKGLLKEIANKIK

COc1ccc(NC(=O)[C@@H]2C[C@H](C)CC[C@H]2C(C)C)cc1 [WS12, (1R,2S,5R)−2-Isopropyl-N-(4-methoxyphenyl)−5-methylcyclohexanecarboxamide] was tested, and the EC50 was 500 nM.
